Publication PMC11118832 (Biomolecules, 2024)
Square brackets hold non-standard residues; d marks the D form. Peptide text beside a SMILES is read from it. Phe(4-NH2) = Nc1ccc(C[C@H](N)C(=O)O)cc1; pS = N[C@@H](COP(=O)(O)O)C(=O)O; Lys(Me) = CNCCCC[C@H](N)C(=O)O; hLeu = CC(C)CC[C@H](N)C(=O)O; Nle = CCCC[C@H](N)C(=O)O

Assays:
PD-1/PD-L1 = target: T1, PD-1/PD-L1 (Homo sapiens, UniProt Q15116); experiment: In vitro time-resolved FRET PD-1/PD-L1 binding assay (CisBio kit); conditions: CisBio PD-1/PD-L1 binding kit, TR FRET, 96-well; for IC50: 4-fold serial dilutions in triplicate, freshly dissolved peptides, read-out: IC50, inhibition of PD-1/PD-L1 binding (TR FRET assay); for EC50: serial dilutions in triplicate, NI = no inhibition at maximum concentration tested (* 5 μM, ** 50 μM), read-out: EC50 (Supplementary Table S1; inhibition of PD-1/PD-L1 binding by in vitro TR-FRET assay)
T1 construct: this kit uses ectodomains of PD-1 and PD-L1 that are expressed with orthogonal fusion tags (Tag-1 and Tag-2); purchased CisBio (currently Perkin-Elmer, Bedford, MA)
Protocol: Commercial PD-1/PD-L1 binding assay kit (CisBio, currently Perkin-Elmer, Bedford, MA) for time resolve fluorescent energy transfer (FRET) was used to assess peptides binding to PD-1. The assay for peptide screening was performed in a 96-well format (normal pressure), starting with 4-fold serial dilutions of each peptide in triplicate. No-peptide triplicate wells were used to assess fluorescent energy transfer in the absence of inhibition, and no-PD-1/PD-L1 triplicate wells were used to assess the background fluorescent energy transfer in the absence of PD-1/PD-L1 complexes. More detailed concentration dependences were obtained for selected peptides. Only freshly dissolved peptides were used in the assay. Various QSAR (quantitative structure activity relationship) hypotheses were tested by synthesizing batches of 10–12 peptides. In total, over one hundred candidates in ten iterations were screened for their ability to inhibit in vitro PD-1/PD-L1 binding using the commercial PD-1/PD-L1 binding assay kit (CisBio, currently Perkin-Elmer). Briefly, this kit uses ectodomains of PD-1 and PD-L1 that are expressed with orthogonal fusion tags (Tag-1 and Tag-2). It also includes two antibodies to selectively interact with these tags. The antibody against one tag is labeled with fluorescent moiety, which serves as a donor, while the other antibody is labeled with fluorescent moiety, which serves as an acceptor in fluorescent resonance energy transfer (FRET). When the complex is formed and probed with both anti-Tag-1 and anti-Tag-2 antibodies, donor and acceptor are sufficiently close, and FRET can be detected in a time-resolved (TR) manner. Inhibitors of PD-1/PD-L1 interactions prevent complex formation, leading to a decrease in TR FRET in a concentration-dependent manner, as shown in Figure 2 for four representative peptide inhibitors. Initial fourfold dilutions are exemplified by data for peptides B5.11 and B5.6 (panels A and B); examples of the more detailed follow-up concentration dependences are shown for peptides B2.4 and B2.22 (panels C and D). The potency of the inhibitors is then characterized by IC50, a concentration that inhibits TR FRET by 50%, allowing for a facile comparison of different inhibitors (Figure 2E).

[1] = pH 6.4
Protocol: We ran chemical shift mapping (CSM) experiments for four peptides, B5.11, B3.15, B5.6, and B2.22. […] CSM ^15N-HSQC experiments with unlabeled peptides (B5.11, B3.15, and B5.6) were performed on uniformly ^15N-labeled PD-1 in a buffer (two series, pH 6.4 and 6.7) containing 25 mM NaPO4, 100 mM NaCl, 1 mM DSS, 10% D2O, and 3% dDMSO (necessary to make peptides stocks). Spectra were recorded at 25 °C on a Varian INOVA 600 MHz spectrometer equipped with an inverse triple-resonance cold probe. Spectra were processed using NMRPipe (11.2 rev 2022.346.12.26) [35] and analyzed with CCPN Analysis [36] made available through NMRBox. Assignments for PD-1 were adopted from BMRB-18908. The chemical shift perturbations were calculated using the following equation [37]: Δδ=0.5(δ^2H+(αδN)^2) where the scaling factor, α, was set to 0.15.

Compound	IC50 (PD-1/PD-L1)	EC50 (PD-1/PD-L1)	Solubility / precipitation in NMR buffer [1]
Ac-LVIVGAAWDYKY-NH2 [B2.22]	0.7 µM	0.7 µM	too hydrophobic and precipitated totally out of the solution
CCCC[C@H](NC(C)=O)C(=O)N[C@H](C(=O)N[C@@H](CC(C)C)C(=O)N[C@H](C(=O)N[C@H](C(=O)N[C@H](C(=O)NCC(=O)N[C@@H](C)C(=O)N[C@@H](C)C(=O)N[C@@H](Cc1c[nH]c2ccccc12)C(=O)N[C@@H](CC(=O)O)C(=O)N[C@@H](Cc1ccc(O)cc1)C(=O)N[C@@H](CCCCN)C(=O)N[C@@H](Cc1ccc(O)cc1)C(N)=O)C(C)C)[C@@H](C)CC)C(C)C)C(C)C [B5.6] (Ac-[Nle]VLVIVGAAWDYKY-NH2)	0.2 µM	0.2 µM	
Ac-RVFVFVGAAWDYKY-NH2 [B2.21]		12.7 µM	
Ac-DVIDGAAHDYKY-NH2 [B8.21]		> 5 µM	
CCCC[C@H](NC(=O)[C@@H](NC(=O)[C@@H](N)CCCNC(=N)N)C(C)C)C(=O)N[C@H](C(=O)N[C@@H](Cc1c[nH]c2ccccc12)C(=O)N[C@H](C(=O)NCC(=O)N[C@@H](C)C(=O)N[C@@H](C)C(=O)N[C@@H](Cc1c[nH]c2ccccc12)C(=O)N[C@@H](CC(=O)O)C(=O)N[C@@H](Cc1ccc(O)cc1)C(=O)N[C@@H](CCCCN)C(=O)N[C@@H](Cc1ccc(O)cc1)C(=O)O)C(C)C)C(C)C [B4.4] (H-RV[Nle]VWVGAAWDYKY-OH; N-terminus and C-terminus assumed)		> 5 µM	
Ac-DIIVGAAWDYKY-NH2 [B5.10]		> 5 µM	
Ac-IVGAAWDYKY-NH2 [B3.1]		> 50 µM	
CC(=O)N[C@H](CC(=O)O)C(=O)N[C@@H](C)C(=O)N[C@@H](C)C(=O)N[C@@H](Cc1c[nH]c2ccccc12)C(=O)N[C@@H](CC(=O)O)C(=O)N[C@@H](Cc1ccc(O)cc1)C(=O)N[C@@H](CCCCN)C(=O)N[C@@H](Cc1ccc(O)cc1)C(N)=O [B9.9] (Ac-[dD]AAWDYKY-NH2)		> 5 µM	
CCCC[C@H](NC(=O)[C@@H](NC(=O)[C@@H](N)CCCNC(=N)N)C(C)C)C(=O)N[C@H](C(=O)N[C@H](C(=O)N[C@H](C(=O)NCC(=O)N[C@@H](C)C(=O)N[C@@H](C)C(=O)N[C@@H](Cc1c[nH]c2ccccc12)C(=O)N[C@@H](CC(=O)O)C(=O)N[C@@H](Cc1ccc(N)cc1)C(=O)N[C@@H](CCCCN)C(=O)N[C@@H](Cc1ccc(O)cc1)C(=O)O)C(C)C)[C@@H](C)CC)C(C)C [B4.10] (H-RV[Nle]VIVGAAWD[Phe(4-NH2)]KY-OH; N-terminus and C-terminus assumed)		> 5 µM	
Ac-EGAAWDYKY-NH2 [B9.6]		> 50 µM	
Ac-DVIVGAAWDYKYLQ-NH2 [B7.5]		> 5 µM	
CCCC[C@H](NC(=O)[C@H](CC(=O)O)NC(C)=O)C(=O)N[C@H](C(=O)N[C@H](C(=O)NCC(=O)N[C@@H](C)C(=O)N[C@@H](C)C(=O)N[C@@H](Cc1c[nH]c2ccccc12)C(=O)N[C@@H](CC(=O)O)C(=O)N[C@@H](Cc1ccc(O)cc1)C(=O)N[C@@H](CCCCN)C(=O)N[C@@H](Cc1ccc(O)cc1)C(N)=O)C(C)C)[C@@H](C)CC [B5.7] (Ac-D[Nle]IVGAAWDYKY-NH2)		> 5 µM	
Ac-NVIVGAAWDYKY-NH2 [B7.7]		> 5 µM	
Ac-WVWVGAAWDYKY-NH2 [B3.8]		> 50 µM	
Ac-EVIDGAAWDYKY-NH2 [B8.17]		> 5 µM	
CCCC[C@H](NC(C)=O)C(=O)N[C@H](C(=O)N[C@@H](Cc1c[nH]c2ccccc12)C(=O)N[C@H](C(=O)NCC(=O)N[C@@H](C)C(=O)N[C@@H](C)C(=O)N[C@@H](Cc1c[nH]c2ccccc12)C(=O)N[C@@H](CC(=O)O)C(=O)N[C@@H](CCCNC(=N)N)C(=O)N[C@@H](CCCCN)C(=O)N[C@@H](Cc1ccc(O)cc1)C(N)=O)C(C)C)C(C)C [B4.12] (Ac-[Nle]VWVGAAWDRKY-NH2)		> 5 µM	
CC[C@H](C)[C@H](NC(=O)[C@@H](NC(=O)[C@H](CC(=O)O)NC(C)=O)C(C)C)C(=O)N[C@H](C(=O)NCC(=O)N[C@@H](C)C(=O)N[C@@H](C)C(=O)N[C@@H](Cc1c[nH]c2ccccc12)C(=O)N[C@@H](CC(=O)O)C(=O)N[C@@H](CCCCNC)C(=O)N[C@@H](CCCCN)C(=O)N[C@@H](Cc1ccc(O)cc1)C(N)=O)C(C)C [B6.3] (Ac-DVIVGAAWD[Lys(Me)]KY-NH2)		> 5 µM	
CCCC[C@H](NC(=O)[C@@H](NC(=O)[C@H](CCCC)NC(=O)[C@@H](NC(=O)[C@@H](N)CCCNC(=N)N)C(C)C)C(C)C)C(=O)N[C@H](C(=O)NCC(=O)N[C@@H](C)C(=O)N[C@@H](C)C(=O)N[C@@H](Cc1c[nH]c2ccccc12)C(=O)N[C@@H](CC(=O)O)C(=O)N[C@@H](Cc1ccc(O)cc1)C(=O)N[C@@H](CCCCN)C(=O)N[C@@H](Cc1ccc(O)cc1)C(=O)O)C(C)C [B4.8] (H-RV[Nle]V[Nle]VGAAWDYKY-OH; N-terminus and C-terminus assumed)		> 5 µM	
CCCC[C@H](NC(=O)[C@@H](NC(=O)[C@H](CC(C)C)NC(=O)[C@@H](NC(=O)[C@H](CCCNC(=N)N)NC(C)=O)C(C)C)C(C)C)C(=O)N[C@H](C(=O)NCC(=O)N[C@@H](C)C(=O)N[C@@H](C)C(=O)N[C@@H](Cc1c[nH]c2ccccc12)C(=O)N[C@@H](CC(=O)O)C(=O)N[C@@H](Cc1ccc(O)cc1)C(=O)N[C@@H](CCCCN)C(=O)N[C@@H](Cc1ccc(O)cc1)C(N)=O)C(C)C [B2.17] (Ac-RVLV[Nle]VGAAWDYKY-NH2)		4 µM	
CC(=O)N[C@@H](CCC(C)C)C(=O)N[C@H](C(=O)N[C@@H](CCC(C)C)C(=O)N[C@H](C(=O)NCC(=O)N[C@@H](C)C(=O)N[C@@H](C)C(=O)N[C@@H](Cc1c[nH]c2ccccc12)C(=O)N[C@@H](CC(=O)O)C(=O)N[C@@H](CCCNC(=N)N)C(=O)N[C@@H](CCCCN)C(=O)N[C@@H](Cc1ccc(O)cc1)C(N)=O)C(C)C)C(C)C [B3.20] (Ac-[hLeu]V[hLeu]VGAAWDRKY-NH2)		> 5 µM	
CCCC[C@H](NC(=O)[C@@H](NC(=O)[C@H](CCCNC(=N)N)NC(C)=O)C(C)C)C(=O)N[C@@H](CCCNC(=N)N)C(=O)N[C@H](C(=O)N[C@@H](CCC(=O)O)C(=O)NCC(=O)N[C@@H](C)C(=O)N[C@@H](C)C(=O)N[C@@H](Cc1c[nH]c2ccccc12)C(=O)N[C@@H](CC(=O)O)C(=O)N[C@@H](Cc1ccc(O)cc1)C(=O)N[C@@H](CCCCN)C(=O)N[C@@H](Cc1ccc(O)cc1)C(N)=O)[C@@H](C)CC [B4.6] (Ac-RV[Nle]RIEGAAWDYKY-NH2)		> 5 µM	
CC[C@H](C)[C@H](NC(=O)[C@@H](NC(=O)[C@@H](CC(=O)O)NC(C)=O)C(C)C)C(=O)N[C@@H](CC(=O)O)C(=O)NCC(=O)N[C@@H](C)C(=O)N[C@@H](C)C(=O)N[C@@H](Cc1c[nH]c2ccccc12)C(=O)N[C@@H](CC(=O)O)C(=O)N[C@@H](Cc1ccc(O)cc1)C(=O)N[C@@H](CCCCN)C(=O)N[C@@H](Cc1ccc(O)cc1)C(N)=O [B8.19] (Ac-[dD]VIDGAAWDYKY-NH2)		> 5 µM	
Ac-DLIDGAAWDYKY-NH2 [B8.15]		> 5 µM	
Ac-LVIVGPAWDYKY-NH2 [B3.9]		8.5 µM	
Ac-DVINGAAWDYKY-NH2 [B8.4]		> 5 µM	
CC[C@H](C)[C@H](NC(=O)[C@H](CCC(C)C)NC(=O)[C@H](CC(=O)O)NC(C)=O)C(=O)N[C@H](C(=O)NCC(=O)N[C@@H](C)C(=O)N[C@@H](C)C(=O)N[C@@H](Cc1c[nH]c2ccccc12)C(=O)N[C@@H](CC(=O)O)C(=O)N[C@@H](Cc1ccc(O)cc1)C(=O)N[C@@H](CCCCN)C(=O)N[C@@H](Cc1ccc(O)cc1)C(N)=O)C(C)C [B5.3] (Ac-D[hLeu]IVGAAWDYKY-NH2)		> 5 µM	
CC[C@H](C)[C@H](NC(=O)[C@@H](NC(=O)[C@H](CC(C)C)NC(C)=O)C(C)C)C(=O)N[C@H](C(=O)NCC(=O)N[C@@H](C)C(=O)N[C@@H](C)C(=O)N[C@@H](Cc1c[nH]c2ccccc12)C(=O)N[C@@H](COP(=O)(O)O)C(=O)N[C@@H](Cc1ccc(O)cc1)C(=O)N[C@@H](CCCCN)C(=O)N[C@@H](Cc1ccc(O)cc1)C(N)=O)C(C)C [B6.2] (Ac-LVIVGAAW[pS]YKY-NH2)		> 5 µM	
Ac-DVIDGAAWDYKY-NH2 [B5.11]	0.05 µM	0.05 µM	
